This series can be described thus: Non-covalent ring closure: intramolecular phenol OH...acceptor H-bond (folding of AD 2-mers; acceptor is phosphine oxide, pyridine or pyridine N-oxide). EMf = Kfold/K(A.D); Kfold inferred from NMR dilution Kobs(AD.AD) versus Kobs(AA.DD). To be noted: the molecule shown is the open-chain precursor, toluene-d8 (C7-PO in CDCl3), 25.0 °C.

The results in this text go back to article PMC5469522.

On to `CCCCP(=O)(CCCC)c1cccc(C#Cc2cc(C#Cc3cccc(O)c3)cc(OCC[C@@H](C)CCC=C(C)C)c2)c1` [C7-PO (44), CDCl3], for which the ring closure, effective molarity (17-membered ring) was 0 mM. Compound `CCCCC(CC)COc1ccc(N(Cc2ccc(O)cc2)Cc2cc([N+](=O)[O-])ccc2OCC(CC)CCCC)cc1CN(Cc1cc[n+]([O-])cc1)c1ccc(OCC(CC)CCCC)c(C2OCCO2)c1` (stereo not shown) [C8-NO (13)] showed a ring closure, effective molarity (19-membered ring) of 0 mM. Take `CCCCP(=O)(CCCC)c1ccc(C[C@@H](CCSCC[C@H](CCSC(C)=O)Cc2ccc(O)cc2)CCSC(C)(C)C)cc1` [C9-PO (33)]: the ring closure, effective molarity (21-membered ring) worked out at 7 mM. Where the note is “21-membered ring”, `CCCCC(CC)COc1cc(CN(Cc2ccccc2OC)c2ccc(O)cc2)cc(CN(Cc2ccccc2OC)c2ccc(OCP(=O)(C(C)(C)C)C(C)(C)C)cc2)c1` (stereo not shown) [N7-PO (29)] had a ring closure, effective molarity of 15 mM. The compound `CCCCC(CC)COc1ccc(N(Cc2ccc(O)cc2)Cc2cc([N+](=O)[O-])ccc2OCC(CC)CCCC)cc1CN(Cc1ccc(OCP(=O)(C(C)(C)C)C(C)(C)C)cc1)c1ccc(OCC(CC)CCCC)c(C2OCCO2)c1` (stereo not shown) [C8-PO (16)] showed a ring closure, effective molarity (22-membered ring) of 7 mM. Same read-out and setting: then `CCCCC(CC)COc1cc(CN(Cc2ccccc2OC)c2ccc(OCP(=O)(C(C)(C)C)C(C)(C)C)cc2)c(OCC(CC)CCCC)cc1CN(Cc1ccccc1OC)c1ccc(O)cc1` (stereo not shown) [N8-PO (26)], with 3 mM.

In the case of `CCCCC(CC)COc1ccc(N(Cc2ccc(O)cc2)Cc2cc([N+](=O)[O-])ccc2OCC(CC)CCCC)cc1CN(Cc1ccncc1)c1ccc(OCC(CC)CCCC)c(C2OCCO2)c1` (stereo not shown) [C8-N (21)], for the setting “18-membered ring”, the ring closure, effective molarity amounted to 0 mM.
